Target: T1, Protein Mdm4 (Homo sapiens, UniProt O15151)
T1 sequence (O15151 whole entry): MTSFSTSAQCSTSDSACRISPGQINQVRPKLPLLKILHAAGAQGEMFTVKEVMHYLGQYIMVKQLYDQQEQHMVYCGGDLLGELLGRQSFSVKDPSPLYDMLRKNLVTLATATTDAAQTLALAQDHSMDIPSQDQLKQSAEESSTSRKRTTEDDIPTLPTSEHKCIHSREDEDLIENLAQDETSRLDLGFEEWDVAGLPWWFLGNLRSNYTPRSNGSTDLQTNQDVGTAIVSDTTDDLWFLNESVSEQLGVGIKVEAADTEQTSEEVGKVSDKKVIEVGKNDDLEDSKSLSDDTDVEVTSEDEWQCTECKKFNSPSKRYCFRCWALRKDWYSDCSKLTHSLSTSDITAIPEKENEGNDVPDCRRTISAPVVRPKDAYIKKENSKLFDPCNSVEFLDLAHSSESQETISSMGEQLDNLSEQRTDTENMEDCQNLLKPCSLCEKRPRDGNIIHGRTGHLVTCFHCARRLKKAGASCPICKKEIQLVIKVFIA
Test: Mdm2-MdmX interaction inhibitors, dose response, luminescence detection (AID 504593)

IC50: 6.71 µM
Compound: Cc1cc(N=NC(C)c2ccccc2O)nc(-c2ccccc2O)n1 (stereo unspecified)
